According to patent US10954258B2, “STAT3 dimerization inhibitors” (H. LEE MOFFITT CANCER CENTER AND RESEARCH INSTITUTE, INC., priority 2012, dated 2021):

What was measured:
Type in all cases: cell-based, human
[1] = test system: STAT3-DNA binding activity in MDA-MB-468 and A-549 cells; assay: STAT3-DNA binding filter plate assay on nuclear extracts; details: 1, 2 or 4 hours
Description: Nuclear extract preparation was carried out as described in Yu, et al., Science 1995; 269(5220):81-83. The STAT3-DNA binding filter plate assay was performed following the manual of the filter plate assay kit (Signosis, Sunnyvale, Calif.), as described for NFkB (Ying, et al., Blood 2011; 117(4):1301-1307). The TF Binding buffer was mixed with the STAT3 probe (biotin labeled STAT3 DNA binding sequence) and nuclear extract and incubated at 16° C. for 30 minutes to form the STAT3-DNA complex. The STAT3-DNA complex was then separated from free probe by using a filter plate. After several steps of binding and washing, bound STAT3 probe is retained on the filter in the corresponding well of Filer Plate and the free DNA probe is removed. The bound pre-labeled STAT3 probe was then eluted from the filter plate by centrifuge with elution buffer. Eluted probes were then hybridized into 96-well Hybridization Plate for quantitative analysis. The captured STAT3 probe was further detected by conjugation with streptavidin-HRP. The chemiluminescence of each well was detected by 2104 EnVisionR Multilabel Reader of PerkinElmer (Pekin Elmer, Waltham, Mass., USA) within 5 minutes after mixture with substrates. […]

H460 cells [2] = assay: anchorage independent growth by soft agar assay, H460; details: low activated STAT3 level
MDA-MB-468 cells = assay: anchorage independent growth by soft agar assay, MDA-MB-468; details: constitutively active STAT3
STAT3 binding to EGFR = molecular target: T1, STAT3 binding to EGFR (Mus musculus, UniProt P42227); assay: co-immunoprecipitation of EGFR and P-STAT3 with HA-STAT3 after EGF stimulation; details: HA-STAT3/FLAG-STAT3/HEK293 cells stimulated with EGF
T1 construct: expressed in transfected cells; host or cells: HEK293 stably co-expressing HA-STAT3 and FLAG-STAT3; EGFR endogenous; stimulated with 100 ng/ml EGF
T1 sequence (P42227 whole entry): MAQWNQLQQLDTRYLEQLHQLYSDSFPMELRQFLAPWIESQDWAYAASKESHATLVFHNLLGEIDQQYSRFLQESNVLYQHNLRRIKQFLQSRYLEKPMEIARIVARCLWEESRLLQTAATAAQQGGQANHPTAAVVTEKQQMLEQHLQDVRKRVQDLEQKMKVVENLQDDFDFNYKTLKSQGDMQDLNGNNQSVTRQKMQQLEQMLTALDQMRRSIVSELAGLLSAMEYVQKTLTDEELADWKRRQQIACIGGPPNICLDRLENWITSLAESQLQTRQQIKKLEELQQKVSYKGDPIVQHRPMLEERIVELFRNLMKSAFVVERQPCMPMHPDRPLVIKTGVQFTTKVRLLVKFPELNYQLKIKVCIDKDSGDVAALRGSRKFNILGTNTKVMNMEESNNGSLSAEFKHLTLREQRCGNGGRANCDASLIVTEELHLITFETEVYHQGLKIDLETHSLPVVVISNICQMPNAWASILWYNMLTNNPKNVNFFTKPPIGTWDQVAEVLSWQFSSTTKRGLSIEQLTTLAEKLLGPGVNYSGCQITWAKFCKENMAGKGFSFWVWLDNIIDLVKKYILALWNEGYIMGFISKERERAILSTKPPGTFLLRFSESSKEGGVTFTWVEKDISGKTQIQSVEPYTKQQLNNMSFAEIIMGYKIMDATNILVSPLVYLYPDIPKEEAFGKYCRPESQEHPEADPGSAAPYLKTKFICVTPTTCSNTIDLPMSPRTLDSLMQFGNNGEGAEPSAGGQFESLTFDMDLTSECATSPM

[3] = test system: P-STAT3 in the nucleus of MDA-MB-468 cells; assay: P-STAT3 nuclear accumulation by immunofluorescence
H460 cells [4] = assay: wound healing (migration) assay, H460; details: low levels of P-STAT3
[5] = test system: P-STAT3, P-Erk, P-Akt, Bcl-xL, Survivin, MMP9 and Cyclin D1 in MDA-MB-468 cells; assay: western immunoblotting of P-STAT3, P-Akt, P-Erk and STAT3 target genes; details: 18 hours
Description: MDA-MB-468 cells were treated with vehicle (DMSO), S3I-1757 at 50 μM, 100 μM and 200 μM, and S3I-1756 at 200 μM for 18 hours. Cells were then lysed with RIPA buffer (20 mM Tris-HCl (pH 7.4), 5 mM EDTA, 10 mM Na4P2O7, 100 mM NaF, 2 mM Na3VO4, 1% NP-40.1 mM PMSF and 10 mg/ml aprotinin). The cell lysates were denatured by boiling with 5×SDS-PAGE sample buffer for 5 minutes and run on SDS-PAGE gel. The proteins were then transferred to membranes that were blocked with 5% non-fat milk in Tris Buffer Saline with 0.1% Tween-20 (TBST) buffer for 30 minutes at room temperature, and incubated with primary antibodies (pY705STAT3, pAKT, AKT, pERK1/2, MMP9, and CyclinDi) 4° C. overnight at dilution of 1:1000 in 3% BSA, followed by washing and incubation with secondary antibody at dilution of 1:1000 in 5% non-milk Tris Buffer Saline with 0.1% Tween-20 (TBST) buffer for 1 hours at room temperature. The membranes were then washed with 1×PBS buffer for 10 minutes for 3 times and developed with ECL kit (PerkinElmer, Waltham, Mass., USA).
To this end, MDA-MB-468 cells were treated with vehicle, S3I-1756 or increasing concentration of S3I-1757 and processed for western blotting.

[6] = test system: MDA-MB-468 cells transiently transfected with vector or STAT3C; assay: STAT3-C rescue: western blotting, MTT, migration and invasion
From the text: To this end, MDA-MB-468 were transfected cells with STAT3-C, then treated the cells with S3I-1757 and processed the cells for western blotting, cell growth, migration and invasion.

[7] = test system: MDA-MB-468, MDA-MB-231, H358, A549 cells; assay: MTT assay, cells with persistently activated STAT3; details: 48 hours
Description: MTT assay was performed exactly as described by Balasis, et al., Clin. Cancer Res. 2011; 17(9):2852-2862, to determine the effects of S3I-1757 on cell proliferation. Cells were plated in a 96 well tissue culture plate (2000 cells per well) and incubated for 12 hours. After incubation the cells were treated with vehicle S3I-1757 or S3I-1756 for 48 hours. After incubation, freshly prepared MTT (3 mg/ml) in 1×PBS was added to each well and incubated for 3 hours and the plate was read at 570 nm.
Several cell lines were used, some with persistently Y705 phosphorylated STAT3 and others without (FIG. 9A). […] The effects of S3I-1757 on cancer cell anchorage-independent growth were next determined by soft-agar assay.

[8] = test system: SRE promoter-renilla luciferase reporter (pLucSRE); assay: luciferase reporter assay, SRE promoter; details: MDA-MB-468; 48 hours
Description: MDA-MB-468 cells were plated into 12-well plate with 4×10^5 cells per well. The cells were transiently transfected with pLucSRE, pLucTKS3 or STAT3-C with β-gal and then were treated with vehicle, S3I-1756 or S3I-1757 for 48 hours. Then cytosolic extracts of equal total protein were prepared from S3I-1757-treated or -untreated and analyzed for luciferase activity using a TD-20/20 luminometer (Turner Designs, Sunnyvale, Calif., USA) described by us previously.
To this end, MDA-MB-468 cells were transiently co-transfected with a STAT3-responsive promoter-firefly luciferase reporter (pLucTKS3) and 3-gal reporter used to normalize the transfection efficacy. To determine the selectivity of S3I-1757 to suppress STAT3-dependent over STAT3-independent transcriptional activation, MDA-MB-468 cells were also co-transfected with SRE promoter-renilla luciferase reporter (pLucSRE) and β-gal reporter. […] STAT3-C spontaneously dimerizes via disulfide bonds in the absence of tyrosine phosphorylation and is therefore not predicted to be inhibited by a small molecule that is designed to mimic phosphotyrosine binding.

[9] = MDA-MB-468 transfected with STAT3-C

EGFR and P-STAT3 co-immunoprecipitated with HA-STAT3 (STAT3 binding to EGFR): inhibited these interactions
SRE-driven luciferase activity (STAT3-independent) [8]: minimal effect
SMILES: O=C(O)c1cc(N(Cc2ccc(C3CCCCC3)cc2)C(=O)c2ccc(Oc3ccccc3)cc2)ccc1O [Compound 20g, 5-(N-(4-Cyclohexylbenzyl)-4-phenoxybenzamido)-2-hydroxybenzoic acid]
activated STAT3 in nuclear extracts capable of binding the STAT3 DNA binding probe [1]: contained less activated STAT3 capable of binding the STAT3 DNA binding probe
anchorage-independent growth (soft agar), H460 (H460 cells [2]): little effect
anchorage independent growth (soft agar), MDA-MB-468 (MDA-MB-468 cells): significantly inhibited
levels of p-STAT3 in the nucleus ([3]; 2 hours and 4 hours): dramatically decreased
P-STAT3 nuclear accumulation ([3]; 18 hours, various concentrations): inhibited P-STAT3 nuclear accumulation in a concentration-dependent manner starting at 50 μM
migration (wound healing), H460 (H460 cells [4]): minimally affected
expression of STAT3 target genes Bcl-xL, survivin, cyclin D1, MMP9 [5]: inhibited the expression of STAT3 target genes
phosphorylation of STAT3-Y705 (western blotting) [5]: inhibited the phosphorylation of STAT3-Y705 in a concentration dependent manner starting at 50 μM
selectivity of inhibition over Akt and Erk1/2 phosphorylation [5]: selective for STAT3 over Akt and Erk1/2 phosphorylation
apoptosis induction (caspase 3, PARP) ([6]; MDA-MB-468, FIG. 11A): induced activation of caspase 3 and PARP cleavage
expression levels of BclxL, cyclin D1 and survivin ([6]; MDA-MB-468, FIG. 11A): inhibited the expression levels of these proteins
down regulation of BclxL, cyclin D1, survivin and apoptosis with ectopic STAT3-C [6, 9]: ectopic expression of STAT3-C inhibited the ability of S3I-1757 to down regulate
inhibition of migration and invasion, STAT3-C-transfected cells [6, 9]: partially rescued
proliferation/survival by MTT with STAT3-C ([6]; MDA-MB-468 transfected with STAT3-C, FIG. 11B): STAT3-C inhibited S3I-1757 from inhibiting the proliferation/survival
migration and invasion, vector-transfected cells ([6]; MDA-MB-468 transfected with vector DNA): inhibited the migration and invasion
anchorage-dependent proliferation by MTT, cells that harbor persistently activated STAT3 [7]: inhibited in a dose dependent manner
